In one assay the test system is IgG. Nature of the assay: Determination of Igs produced in in vitro culture: inhibition of IgG secreted by spleen cells (adoptive secondary immune response to DNP-As), ELISA. Type of assay: cell-based, BALB/c mice. Conditions: 4 days culture; for inhibition at 2.5 µg/mL: 2.5 μg/ml; for inhibition at 0.25 µg/mL: 0.25 μg/ml; for inhibition at 5 µg/mL: 5.0 μg/ml; for inhibition at 10 µg/mL: 10.0 μg/ml. As to the method: (§1) Determination of Igs produced in in vitro culture
(§2) BALB/c mice were immunized intraperitoneally with 5 μg of DNP-As adsorbed in 4 mg aluminum hydroxide gel. 4 weeks after the immunization, the spleens were excised from the mice and 5×10^7 spleen cells were transferred intravenously into the recipient mice which had been exposed to 600 rad of X-ray irradiation. Immediately after cell transfer, the recipients were then immunized intraperitoneally with 5 μg of DNP-As adsorbed in 4 mg aluminum hydroxide gel to induce adoptive secondary immune response. Further 4 weeks after the immunization of recipients, the spleens were excised from them and the spleen cell suspensions 5×10^6 cells/ml were cultured with or without a compound to be tested in 96-well micro plates at 37° C. for 4 days. IgE and IgG secreted into the culture supernatant was each determined correspondingly by ELISA and the inhibitory effect was calculated according to the following equation. [formula]
For orientation: In an ELISA, binding on a coated surface is turned into a signal by an enzyme label.

For the next assay, the system named is IgE. Put plainly: Determination of Igs produced in in vitro culture: inhibition of IgE secreted by spleen cells (adoptive secondary immune response to DNP-As), ELISA. Type of assay: cell-based, BALB/c mice. The note with it: 4 days culture; for inhibition at 2.5 µg/mL: 2.5 μg/ml; for inhibition at 0.25 µg/mL: 0.25 μg/ml; for inhibition at 5 µg/mL: 5.0 μg/ml; for inhibition at 10 µg/mL: 10.0 μg/ml. The method, then:
as §1, §2

Take `CSc1c(C#N)c(=O)n2ccccc2c1C(=O)N1CCCc2ccccc21` [S-88, 3-Cyano-2-methylthio-1-(1,2,3,4-tetrahydroquinolin-1-ylcarbonyl)-4H-quinolizin-4-one]: the inhibition (as a rule, the drop in the measured response relative to a control, in per cent) at 2.5 µg/mL in the assay with IgG (Mus musculus, 96 h) was 7%; in the assay on IgE (Mus musculus, 96 h), 40%.
Take `CSc1c(C#N)c(=O)n2ccccc2c1C(=O)OCc1cccc(Cl)c1` [S-38, 3'-Chlorobenzyl 3-cyano-2-methylthio-4H-quinolizin-4-one-1-carboxylate]: the inhibition at 1 µg/mL with IgG (Mus musculus, 96 h, 1.0 μg/ml) came out at 43%; in the assay on IgE (Mus musculus, 96 h, 1.0 μg/ml), 77%.
As for `CSc1c(C#N)c(=O)n2ccccc2c1C(=O)OC(C)CCc1ccccc1` (stereo not shown) [S-46, 1'-Methyl-3'-phenylpropyl 3-cyano-2-methylthio-4H-quinolizin-4-one-1-carboxylate], the inhibition at 1 µg/mL in the assay with IgG (Mus musculus, 96 h, 1.0 μg/ml) was 79%; in the assay on IgE (Mus musculus, 96 h, 1.0 μg/ml), 90%.
For the molecule `CSc1c(C#N)c(=O)n2ccccc2c1C(=O)OCc1ccc(F)cc1` [S-34, 4'-Fluorobenzyl 3-cyano-2-methylthio-4H-quinolizin-4-one-1-carboxylate], the inhibition at 0.25 µg/mL came to 31% in the assay on IgG (Mus musculus, 96 h) and 52% in the assay with IgE (Mus musculus, 96 h).
`CSc1c(C#N)c(=O)n2ccccc2c1C(=O)O[C@H]1CC[C@H](O)CC1` [S-16, trans-4'-Hydroxycyclohexyl 3-cyano-2-methylthio-4H-quinolizin-4-one-1-carboxylate]: the inhibition at 5 µg/mL in the assay on IgG (Mus musculus, 96 h) came out at 14%; in the assay on IgE (Mus musculus, 96 h), 52%.
As to `COc1cccc(COC(=O)c2c(SC)c(C#N)c(=O)n3ccccc23)c1` [S-35, 3'-Methoxybenzyl 3-cyano-2-methylthio-4H-quinolizin-4-one-1-carboxylate], the inhibition at 1 µg/mL worked out at 45% in the assay with IgG (Mus musculus, 96 h, 1.0 μg/ml) and 64% in the assay with IgE (Mus musculus, 96 h, 1.0 μg/ml).
For `C=CCOC(=O)c1c(SC)c(C#N)c(=O)n2ccccc12` [S-5, 2'-Propenyl 3-cyano-2-methylthio-4H-quinolizin-4-one-1-carboxylate], the inhibition at 20 µg/mL with IgG (Mus musculus, 96 h, 20.0 μg/ml) stood at 47%; with IgE (Mus musculus, 96 h, 20.0 μg/ml) it was 77%.
`CSc1c(C#N)c(=O)n2ccccc2c1C(=O)N1CCc2ccccc2C1` [S-87, 3-Cyano-2-methylthio-1-(1,2,3,4-tetrahydroisoquinolin-2-ylcarbonyl)-4H-quinolizin-4-one]: the inhibition at 5 µg/mL was 36% in the assay with IgG (Mus musculus, 96 h) and 61% in the assay on IgE (Mus musculus, 96 h).
On to `CCCCSc1c(C#N)c(=O)n2ccccc2c1C(=O)OCC` [S-58, Ethyl 3-cyano-2-butylthio-4H-quinolizin-4-one-1-carboxylate], for which the inhibition at 10 µg/mL in the assay with IgG (Mus musculus, 96 h) came out at 60%; with IgE (Mus musculus, 96 h) it was 89%.
Consider `CSc1c(C#N)c(=O)n2ccccc2c1C(=O)OCc1ccc2ccccc2c1` [S-41, 2'-Napthylmethyl 3-cyano-2-methylthio-4H-quinolizin-4-one-1-carboxylate], for which the inhibition at 1 µg/mL stood at 68% in the assay on IgG (Mus musculus, 96 h, 1.0 μg/ml) and 86% in the assay on IgE (Mus musculus, 96 h, 1.0 μg/ml).
Take `CSc1c(C#N)c(=O)n2ccccc2c1C(=O)Cc1ccccc1C` [S-98, 3-Cyano-1-(2-methylphenylacetyl)-2-methylthio-4H-quinolizin-4-one]: the inhibition at 10 µg/mL was determined as 13% in the assay with IgG (Mus musculus, 96 h) and 38% in the assay on IgE (Mus musculus, 96 h).
As to `CSc1c(C#N)c(=O)n2ccccc2c1C(=O)OCc1ccc(C(C)C)cc1` [S-36, 4'-Isopropylbenzyl 3-cyano-2-methylthio-4H-quinolizin-4-one-1-carboxylate], the inhibition at 0.25 µg/mL stood at 8% in the assay on IgG (Mus musculus, 96 h) and 33% in the assay on IgE (Mus musculus, 96 h).
With `CSc1c(C#N)c(=O)n2ccccc2c1C(=O)OC(C)Cc1ccccc1` (stereo not shown) [S-43, 1'-Methyl-2'-phenylethyl 3-cyano-2-methylthio-4H-quinolizin-4-one-1-carboxylate], the inhibition at 1 µg/mL in the assay on IgG (Mus musculus, 96 h, 1.0 μg/ml) came out at 46%; with IgE (Mus musculus, 96 h, 1.0 μg/ml) it was 75%.
As to `CSc1c(C#N)c(=O)n2ccccc2c1C(=O)OCCC(C)C` [S-11, Isopentyl 3-cyano-2-methylthio-4H-quinolizin-4-one-1-carboxylate], the inhibition at 5 µg/mL with IgG (Mus musculus, 96 h) was found to be 30%; with IgE (Mus musculus, 96 h), 66%.
As to `N#Cc1c(SCc2ccccc2)c(C(=O)N2CCC(c3ccccc3)CC2)c2ccccn2c1=O` (single isomer, unassigned) [S-83A, 2-Benzylthio-3-cyano-1-(4-phenylpiperidinocarbonyl)-4H-quinolizin-4-one], the inhibition at 1 µg/mL turned out to be 23% in the assay on IgG (Mus musculus, 96 h, 1.0 μg/ml) and 67% with IgE (Mus musculus, 96 h, 1.0 μg/ml).
In the same order, the values of `CSc1c(C#N)c(=O)n2ccccc2c1C(=O)CC1CCCCC1` [S-94, 3-Cyano-1-cyclohexylacetyl-2-methylthio-4H-quinolizin-4-one] are 33% and 62%.
For `N#Cc1c(SCc2ccccc2)c(C(=O)N2CCC(Cc3ccccc3)CC2)c2ccccn2c1=O` (single isomer, unassigned) [S-84A, 1-(4-Benzylpiperidinocarbonyl)-2-benzylthio-3-cyano-4H-quinolizin-4-one] the same measures were 22% and 58%.
Regarding `CSc1c(C#N)c(=O)n2ccccc2c1C(=O)OC(C)c1ccc(Br)cc1` (stereo not shown) [S-30, 1'-(4-Bromophenyl)ethyl 3-cyano-2-methylthio-4H-quinolizin-4-one-1-carboxylate], the inhibition at 0.25 µg/mL was determined as 27% with IgG (Mus musculus, 96 h) and 45% with IgE (Mus musculus, 96 h).
With `N#Cc1c(SCc2ccccc2)c(C(=O)N2CCC(Cc3ccccc3)CC2)c2ccccn2c1=O` (single isomer, unassigned) [S-84B, 1-(4-Benzylpiperidinocarbonyl)-2-benzylthio-3-cyano-4H-quinolizin-4-one], in the assay on IgG (1.0 μg/ml), the “Inhibition % of IgG” value is given as 32%. Moreover, the “Inhibition % of IgE” value in the assay on IgE (1.0 μg/ml) was 58%.
As for `CCCC(=O)c1c(SC)c(C#N)c(=O)n2ccccc12` [S-93, 1-Butyryl-3-cyano-2-methylthio-4H-quinolizin-4-one], the inhibition at 10 µg/mL with IgG (Mus musculus, 96 h) is 31%; in the assay on IgE (Mus musculus, 96 h), 62%.
On to `CSc1c(C#N)c(=O)n2ccccc2c1C(=O)N(Cc1ccccc1)C(C)C` [S-68, N-Benzyl-3-cyano-N-isopropyl-2-methylthio-4H-quinolizin-4-one-1-carboxamide], for which the inhibition at 2.5 µg/mL with IgG (Mus musculus, 96 h) was found to be 7%; in the assay with IgE (Mus musculus, 96 h), 41%.
For the molecule `CSc1c(C#N)c(=O)n2ccccc2c1C(=O)OC(C)c1ccc(C#N)cc1` (stereo not shown) [S-32, 1'-(4-Cyanophenyl)ethyl 3-cyano-2-methylthio-4H-quinolizin-4-one-1-carboxylate], the inhibition at 1 µg/mL is 28% in the assay with IgG (Mus musculus, 96 h, 1.0 μg/ml) and 52% in the assay on IgE (Mus musculus, 96 h, 1.0 μg/ml).
Take `CCSc1c(C#N)c(=O)n2ccccc2c1C(=O)OCCCc1ccccc1` [S-52, 3'-Phenylpropyl 3-cyano-2-ethylthio-4H-quinolizin-4-one-1-carboxylate]: the inhibition at 0.25 µg/mL was 17% in the assay with IgG (Mus musculus, 96 h) and 46% in the assay on IgE (Mus musculus, 96 h).
For the molecule `CSc1c(C#N)c(=O)n2ccccc2c1C(=O)OCc1ccc2c(c1)OCO2` [S-26, Piperonyl 3-cyano-2-methylthio-4H-quinolizin-4-one-1-carboxylate], the inhibition at 40 µg/mL came out at 17% with IgG (Mus musculus, 96 h, 40.0 μg/ml) and 48% in the assay with IgE (Mus musculus, 96 h, 40.0 μg/ml).
Regarding `CSc1c(C#N)c(=O)n2ccccc2c1C(=O)N(CCNc1ccccc1)c1ccccc1` [S-67, 3-Cyano-2-methylthio-N-phenyl-N-(2-phenylaminoethyl)-4H-quinolizin-4-one-1-carboxamide], the inhibition at 2.5 µg/mL in the assay on IgG (Mus musculus, 96 h) is 46%; in the assay on IgE (Mus musculus, 96 h), 68%.
As for `CSc1c(C#N)c(=O)n2ccccc2c1C(=O)N(CC(C)C)CC(C)C` [S-64, 3-Cyano-N,N-diisobutyl-2-methylthio-4H-quinolizin-4-one-1-carboxamide], the inhibition at 5 µg/mL with IgG (Mus musculus, 96 h) was 41%; with IgE (Mus musculus, 96 h), 65%.

The record behind these values is US4877795A, “4H-quinolizin-4-one compounds useful for the treatment of allergic bronchial asthma, allergic rhinitis atropic dermatitis and the like” (Kissei Pharmaceutical Co., Ltd., priority 1987, dated 1989).
